Assay results taken from patent US20160287617A1 (priority 2013, published 2016).
Marks after values point to notes of the source that are not given here.

Experiments:
Parameters in all cases: species or system broiler chickens
Settings in all cases: in vivo
Newcastle = test system: Newcastle
T-2 toxin in chickens [1] = test system: T-2 toxin in chickens
T-2 toxin in chickens [2] = test system: T-2 toxin in chickens; remark: listed apart in the source
T-2 toxin in chickens [3] = test system: T-2 toxin in chickens; remark: listed apart in the source
T-2 toxin in chickens [4] = test system: T-2 toxin in chickens; remark: listed apart in the source
T-2 toxin in chickens [5] = test system: T-2 toxin in chickens; remark: listed apart in the source

T-2 toxin
Inhibition of Newcastle hemagglutination (18 days after vaccination), medians ± standard error (Newcastle): 8.717 ± 0.29 ^b Log2 | Ash, medians ± standard error (T-2 toxin in chickens [1]): 56.37 ± 0.32 ^a % | Calcium, medians ± standard error (T-2 toxin in chickens [1]): 20.43 ± 0.19 ^a % | Manganesium, medians ± standard error (T-2 toxin in chickens [1]): 6.7 ± 0.21 ^a mg/kg | Phosphorous, medians ± standard error (T-2 toxin in chickens [1]): 9.72 ± 0.07 ^a % | Zinc, medians ± standard error (T-2 toxin in chickens [1]): 247 ± 4.37 ^a mg/kg | Gizzard: loss of continuity, ulcer activity (moderate multifocal ulcerative ventriculitis) (T-2 toxin in chickens [2]): 7/12 | Gizzard: scant erosions in the recovery zone (discrete, multifocal erosions) (T-2 toxin in chickens [2]): 5/12 | Kidney: lymphocyte clusters in the interstitial space (T-2 toxin in chickens [2]): 4/12 | Larynx: no significant changes (T-2 toxin in chickens [2]): 4/12 | Liver: areas of extramedullary hematopoiesis (T-2 toxin in chickens [2]): 1/12 | Liver: multifocal lymphocyte clusters around portal cavities and in the parenchymal (lymphocytic colangiohepatitis) (T-2 toxin in chickens [2]): 8/12 | Liver: scant fat vacuoles/cells in hepatocyte cytoplasm (esteatosis) (T-2 toxin in chickens [2]): 3/12 | Proventriculus: hyperplasia / cluster of associated lymphoid tissue (T-2 toxin in chickens [2]): 1/12 | Proventriculus: no significant changes (T-2 toxin in chickens [2]): 11/12 | Spleen, thymus: no significant changes (T-2 toxin in chickens [2]): 12/12 | Tongue: dense plates above epithelium lining with lymphocyte and macrophage clusters (estomatitis and erosive/necrotic glositis) (T-2 toxin in chickens [2]): 8/12 | Tongue: no significant changes (animals/examined) (T-2 toxin in chickens [2]): 4/12 | Granulocytes (segmented neutrophils and band neutrophils), medians ± standard error (T-2 toxin in chickens [3]): 0.9 ± 0.17 ^a 10^3/μL | Hematocrit, medians ± standard error (T-2 toxin in chickens [3]): 31.8 ± 1.56 ^a % | Hemoglobin, medians ± standard error (T-2 toxin in chickens [3]): 12.1 ± 0.46 ^a g/dL | Lymphocytes, medians ± standard error (T-2 toxin in chickens [3]): 58.4 ± 3.32 ^b 10^3/μL | Median cell count (monocytes, basophils and eosinophils), medians ± standard error (T-2 toxin in chickens [3]): 5.8 ± 0.76 ^a 10^3/μL | Platelets, medians ± standard error (T-2 toxin in chickens [3]): 31 ± 4.95 ^a 10^3/μL | Red blood cells (erythrocytes), medians ± standard error (T-2 toxin in chickens [3]): 2.46 ± 0.12 ^a 10^6/μL | White blood cells (Leukocytes), medians ± standard error (T-2 toxin in chickens [3]): 65.10 ± 4.07 ^b 10^3/μL | Feed consumption, medians ± standard error (T-2 toxin in chickens [4]): 2035 ± 44.3 ^a | Feed conversion, medians ± standard error (T-2 toxin in chickens [4]): 1.45 ± 0.035 ^b | Weight gain, medians ± standard error (T-2 toxin in chickens [4]): 1399 ± 29.46 ^b | Weight in g, Final (28 days), medians ± standard error (T-2 toxin in chickens [4]): 1442 ± 29.49 ^b g | Weight in g, Initial, medians ± standard error (T-2 toxin in chickens [4]): 43 ± 0.43 ^a g | Xantophylls (oral solution), medians ± standard error (T-2 toxin in chickens [4]; po): 8.92 ± 0.70 ^b mg/L | Relative weight of bursa of Fabricius (%), medians ± standard error (T-2 toxin in chickens [5]): 0.248 ± 0.016 ^a % | Relative weight of kidney (%), medians ± standard error (T-2 toxin in chickens [5]): 0.809 ± 0.032 ^a % | Relative weight of liver (%), medians ± standard error (T-2 toxin in chickens [5]): 2.57 ± 0.104 ^a % | Relative weight of spleen (%), medians ± standard error (T-2 toxin in chickens [5]): 0.094 ± 0.009 ^a % | Relative weight of thymus (%), medians ± standard error (T-2 toxin in chickens [5]): 0.282 ± 0.020 ^a %
